From US10343992B2, “1-cyano-pyrrolidine compounds as USP30 inhibitors” (MISSION THERAPEUTICS LIMITED, priority 2015, dated 2019) come the findings set out here.

Where only a bound is given, the exact number is not on record here.

The target in this test is USP30 (Homo sapiens (Human), UniProt Q70CQ3). Put plainly: USP30 biochemical FP or FI IC50 assay. Particulars: read-out: IC50 range. The method, boiled down: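 Human USP30 preincubated 30 min at room temperature with compound (8-point series, 100 µM top final) in Tris pH 7.5, Tween 20, BSA, 5 mM β-mercaptoethanol, in duplicate. FP format: 50 nM TAMRA-peptide–isopeptide-ubiquitin substrate, ex 540/em 590. FI format: 100 nM ubiquitin-rhodamine 110, ex 487/em 535. Both read at 0 and after 2 h at room temperature.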
USP30, sequence (Q70CQ3 57-517): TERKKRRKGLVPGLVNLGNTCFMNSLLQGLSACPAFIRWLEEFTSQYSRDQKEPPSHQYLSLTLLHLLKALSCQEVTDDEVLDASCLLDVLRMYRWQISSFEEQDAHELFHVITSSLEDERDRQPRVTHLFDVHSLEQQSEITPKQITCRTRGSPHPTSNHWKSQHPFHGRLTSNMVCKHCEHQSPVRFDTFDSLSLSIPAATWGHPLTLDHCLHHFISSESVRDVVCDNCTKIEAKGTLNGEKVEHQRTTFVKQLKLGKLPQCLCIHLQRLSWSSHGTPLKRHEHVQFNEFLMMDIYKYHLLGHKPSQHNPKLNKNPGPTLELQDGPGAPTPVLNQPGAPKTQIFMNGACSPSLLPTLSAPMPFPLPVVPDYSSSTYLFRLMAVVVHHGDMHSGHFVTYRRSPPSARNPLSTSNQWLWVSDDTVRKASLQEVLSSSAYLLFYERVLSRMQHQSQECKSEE
As for `Cc1cc(-c2cc(C(=O)N(C)[C@@H]3CCN(C#N)C3)on2)ccn1` [Example 273, (R)—N-(1-cyanopyrrolidin-3-yl)-N-methyl-3-(2-methylpyridin-4-yl)isoxazole-5-carboxamide], the IC50 (in general, the concentration needed to halve the response being measured) lay in the range of 0.1 to 1 µM.
Take “(3aR,6aR)-1-(indoline-1-carbonyl)hexahydropyrrolo[3,4-b]pyrrole-5(1H)-carbonitrile [Example 269]”: the IC50 was in the range of 1 to 10 µM.
Under “(R)-N-(1-cyanopyrroldidin-3-yl)-6-(3,5-dimethylisoxazol-4-yl)-N-methyl-1H-indole-2-carboxamide [Example 262]” stands < 0.1 µM.
